Values of other authors as cited in patent US20130309199A1, “Novel Treatment of Multiple Sclerosis (MS)” (priority 2010, published 2013).

Legend:
[1] = system: detrusor instability; conditions: cited from earlier work
[2] = system: active multiple sclerosis lesions; conditions: gadolinium-enhanced MR images; cited from earlier work

SMILES	side effects occurred ([1]; compared with five on placebo, P less than 0.025) [patients]	tolerability ([1]; in vivo)	frequency ([1]; vs placebo, P less than 0.001)	detrusor-pressure rise during bladder filling ([1]; vs placebo, P less than 0.01)	urge incontinence ([1]; vs placebo, P less than 0.025)	urgency ([1]; vs placebo, P less than 0.025)	suppression of active multiple sclerosis lesions [2]
CC(C(=O)O)c1ccc(-c2ccccc2)c(F)c1 (racemic) [Flurbiprofen]	13	well tolerated by most patients	significantly reduced	significantly reduced	significantly reduced	significantly reduced	–
CC(C)Cc1ccc(C(C)C(=O)O)cc1 (stereo not shown) [Ibuprofen]	–	–	–	–	–	–	does not suppress
